# Biological target: human plasma kallikrein (Homo sapiens (Human), UniProt P03952)
# Test: Plasma Kallikrein Activity Assay (chromogenic substrate S2302)
# Format: biochemical
# Conditions: 2 nM kallikrein, 80 μM S2302, 30° C., pH 7.8; Cheng-Prusoff
# Outline: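 2 nM human plasma kallikrein incubated at 30° C with 80 μM S2302 and increasing compound concentrations in 50 mM Tris-HCl pH 7.8, 200 mM NaCl, 2.5 mM CaCl2. Activity read as absorbance change at 405 nm; four-parameter logistic fit, Ki by Cheng-Prusoff.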
# Chain of human plasma kallikrein (P03952 391-638): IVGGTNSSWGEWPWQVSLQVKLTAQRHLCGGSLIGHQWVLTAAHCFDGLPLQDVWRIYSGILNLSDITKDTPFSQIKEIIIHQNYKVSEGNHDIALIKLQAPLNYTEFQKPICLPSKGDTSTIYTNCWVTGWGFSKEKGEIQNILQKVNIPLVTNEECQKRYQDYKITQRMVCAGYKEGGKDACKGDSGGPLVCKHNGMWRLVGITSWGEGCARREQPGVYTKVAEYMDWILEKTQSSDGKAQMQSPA
# Chain of human plasma kallikrein (P03952 20-390 partner): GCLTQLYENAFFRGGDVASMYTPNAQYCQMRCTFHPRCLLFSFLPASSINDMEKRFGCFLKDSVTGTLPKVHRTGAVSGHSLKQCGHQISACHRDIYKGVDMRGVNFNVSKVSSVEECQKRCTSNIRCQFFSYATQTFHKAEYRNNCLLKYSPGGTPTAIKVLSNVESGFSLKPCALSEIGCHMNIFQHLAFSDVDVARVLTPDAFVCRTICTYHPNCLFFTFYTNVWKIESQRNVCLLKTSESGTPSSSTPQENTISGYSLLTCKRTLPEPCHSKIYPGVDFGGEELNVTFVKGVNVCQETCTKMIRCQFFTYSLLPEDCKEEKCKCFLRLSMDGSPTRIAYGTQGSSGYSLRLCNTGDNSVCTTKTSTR
row,Structure (SMILES),Ki [nM]
1,"N#Cc1cccc(C(N)(CCC2CC2)c2ccc(F)c(NC(=O)[C@H]3C[C@](O)(c4ccccc4)CN3)c2)c1 (stereo partly drawn) [Compound 29d, (2R,4S)-N-(5-((−)-1-amino-1-(3-cyanophenyl)-3-cyclopropylpropyl)-2-fluorophenyl)-4-hydroxy-4-phenylpyrrolidine-2-carboxamide]",> 100
2,"CC(C)(C)[S@@+]([O-])NC(CCC1CC1)(c1cccc(C#N)c1)c1ccc(F)c(NC(=O)[C@H]2CCCN2C(=O)Nc2ccc(Cl)cc2)c1 (stereo partly drawn) [Compound 7b, (R)-N1-(4-chlorophenyl)-N2-(5-((+)-1-(3-cyanophenyl)-3-cyclopropyl-1-((R)-1,1-dimethylethylsulfinamido)propyl)-2-fluorophenyl)pyrrolidine-1,2-dicarboxamide]",> 100
3,"CCC1(O)C[C@H](C(=O)Nc2cc(C(N)(CCC3CC3)c3ccccn3)ccc2F)N(C(=O)Nc2ccc(Cl)cn2)C1 (stereo partly drawn) [Compound 38d, (2R)-N2-(5-((+)-1-amino-3-cyclopropyl-1-(pyridin-2-yl)propyl)-2-fluorophenyl)-N1-(5-chloropyridin-2-yl)-4-ethyl-4-hydroxypyrrolidine-1,2-dicarboxamide]",< 50
4,"CO[C@H]1C[C@@H](C(=O)Nc2cc(C(N)(CCC3CC3)c3cccc(C#N)c3)ccc2F)N(C(=O)Nc2ccc(Cl)cc2)C1 (stereo partly drawn) [Compound 11e, (2S,4S)-N2-(5-((−)-1-amino-1-(3-cyanophenyl)-3-cyclopropylpropyl)-2-fluorophenyl)-N1-(4-chlorophenyl)-4-methoxypyrrolidine-1,2-dicarboxamide]",> 100
5,"NC(CCC1CC1)(c1ccc(F)c(NC(=O)[C@H]2C[C@](O)(c3ccccc3)CN2C(=O)Nc2ccc(Cl)cc2)c1)c1ccccn1 (stereo partly drawn) [Compound 31i, (2R,4S)-N2-(5-((−)-1-amino-3-cyclopropyl-1-(pyridin-2-yl)propyl)-2-fluorophenyl)-N1-(4-chlorophenyl)-4-hydroxy-4-phenylpyrrolidine-1,2-dicarboxamide]",< 50
6,"O=C(Nc1cc(C(NCC2CC2)c2ccccc2)ccc1F)[C@H]1C[C@@H](O)CN1C(=O)Nc1ccc(Cl)cc1 (stereo partly drawn) [Compound 3a, (2R,4R)-N1-(4-chlorophenyl)-N2-(5-((+)-(cyclopropylmethylamino)(phenyl)methyl)-2-fluorophenyl)-4-hydroxypyrrolidine-1,2-dicarboxamide]",50 to 100
7,"NC(CCC1CC1)(c1ccncc1)c1ccc(F)c(NC(=O)[C@H]2C[C@@H](O)CN2C(=O)Nc2ccc(Cl)cc2)c1 (stereo partly drawn) [Compound 69a, (2R,4R)-N2-(5-((+)-1-amino-3-cyclopropyl-1-(pyridin-4-yl)propyl)-2-fluorophenyl)-N1-(4-chlorophenyl)-4-hydroxypyrrolidine-1,2-dicarboxamide]",< 50
8,"NC(CCC1CC1)(c1cccnc1)c1ccc(F)c(NC(=O)[C@H]2C[C@@H](O)CN2C(=O)Nc2ccc(Cl)cc2)c1 (stereo partly drawn) [Compound 64g, (2R,4R)-N2-(5-((+)-1-amino-3-cyclopropyl-1-(pyridin-3-yl)propyl)-2-fluorophenyl)-N1-(4-chlorophenyl)-4-hydroxypyrrolidine-1,2-dicarboxamide]",< 50
9,"CO[C@@H]1C[C@H](C(=O)Nc2cc(C(CCC3CC3)(NC(C)=O)c3ccncc3)ccc2F)N(C(=O)Nc2ccc(Cl)cn2)C1 (stereo partly drawn) [Compound 73a, (2R,4R)-N2-(5-((+)-1-acetamido-3-cyclopropyl-1-(pyridin-4-yl)propyl)-2-fluorophenyl)-N1-(5-chloropyridin-2-yl)-4-methoxypyrrolidine-1,2-dicarboxamide]",< 50
10,"CC(C)(C)[S@@+]([O-])NC(CCC1CC1)(c1ccncc1)c1ccc(F)c(NC(=O)[C@H]2C[C@@H](O)CN2C(=O)Nc2ccc(Cl)cc2)c1 (stereo partly drawn) [Compound 68a, (2R,4R)-N1-(4-chlorophenyl)-N2-(5-(3-cyclopropyl-1-((R)-1,1-dimethylethylsulfinamido)-1-(pyridin-4-yl)propyl)-2-fluorophenyl)-4-hydroxypyrrolidine-1,2-dicarboxamide]",< 50
11,"N#Cc1cccc(C(N)(CCC2CC2)c2ccc(F)c(NC(=O)[C@@H]3C[C@@H](O)CN3C(=O)Nc3ccc(Cl)cc3)c2)c1 (stereo partly drawn) [Compound 5e, (2S,4R)-N2-(5-((−)-1-amino-1-(3-cyanophenyl)-3-cyclopropylpropyl)-2-fluorophenyl)-N1-(4-chlorophenyl)-4-hydroxypyrrolidine-1,2-dicarboxamide]",> 100
12,"NC(CCC1CC1)(c1ccncc1)c1ccc(F)c(NC(=O)[C@H]2C[C@](O)(c3ccccc3)CN2C(=O)Nc2ccc(Cl)cn2)c1 (stereo partly drawn) [Compound 39h, (2R,4S)-N2-(5-((+)-1-amino-3-cyclopropyl-1-(pyridin-4-yl)propyl)-2-fluorophenyl)-N1-(5-chloropyridin-2-yl)-4-hydroxy-4-phenylpyrrolidine-1,2-dicarboxamide]",< 50
13,"N#Cc1cccc(C(N)(CCC2CC2)c2ccc(F)c(NC(=O)[C@H]3C[C@H](N)CN3C(=O)Nc3ccc(Cl)cc3)c2)c1 (stereo partly drawn) [Compound 33d, (2R,4S)-4-amino-N2-(5-((+)-1-amino-1-(3-cyanophenyl)-3-cyclopropylpropyl)-2-fluorophenyl)-N1-(4-chlorophenyl)pyrrolidine-1,2-dicarboxamide]",> 100
14,"N#Cc1ccc(C(N)(CCC2CC2)c2ccc(F)c(NC(=O)[C@H]3C[C@@H](O)CN3C(=O)Nc3ccc(Cl)cc3)c2)cc1 (stereo partly drawn) [Compound 63g, (2R,4R)-N2-(5-((+)-1-amino-1-(4-cyanophenyl)-3-cyclopropylpropyl)-2-fluorophenyl)-N1-(4-chlorophenyl)-4-hydroxypyrrolidine-1,2-dicarboxamide]",50 to 100
15,"CO[C@@H]1C[C@H](C(=O)Nc2cc(C(N)(CCC3CC3)c3cccc(C#N)c3)ccc2F)N(C(=O)Nc2ccc(Cl)cn2)C1 (stereo partly drawn) [Compound 18b, (2R,4R)-N2-(5-((+)-1-amino-1-(3-cyanophenyl)-3-cyclopropylpropyl)-2-fluorophenyl)-N1-(5-chloropyridin-2-yl)-4-methoxypyrrolidine-1,2-dicarboxamide]",< 50
16,"CO[C@@H]1C[C@H](C(=O)Nc2cc(C(CCC3CC3)(NS(C)(=O)=O)c3ccncc3)ccc2F)N(C(=O)Nc2ccc(Cl)cn2)C1 (stereo partly drawn) [Compound 74a, (2R,4R)-N1-(5-chloropyridin-2-yl)-N2-(5-((+)-3-cyclopropyl-1-(methylsulfonamido)-1-(pyridin-4-yl)propyl)-2-fluorophenyl)-4-methoxypyrrolidine-1,2-dicarboxamide]",< 50
17,"NC(CCC1CC1)(c1ccncc1)c1ccc(F)c(NC(=O)[C@H]2C[C@H]3C[C@H]3N2)c1 (stereo partly drawn) [Compound 80c, (1R,3R,5R)-N-(5-((+)-1-amino-3-cyclopropyl-1-(pyridin-4-yl)propyl)-2-fluorophenyl)-2-azabicyclo[3.1.0]hexane-3-carboxamide]",50 to 100
18,"O=C(Nc1cc(C(NCC2CC2)c2ccccc2)ccc1F)[C@H]1C[C@@H](O)CN1C(=O)Nc1ccc(Cl)cc1 (stereo partly drawn) [Compound 1p, (2R,4R)-N1-(4-chlorophenyl)-N2-(5-(((cyclopropylmethyl)amino)(phenyl)methyl)-2-fluorophenyl)-4-hydroxypyrrolidine-1,2-dicarboxamide]",> 100
19,"NC(CCC1CC1)(c1ccncc1)c1ccc(F)c(NC(=O)[C@H]2C[C@](O)(c3ccccc3)CN2C(=O)Nc2ccc(Cl)cc2)c1 (stereo partly drawn) [Compound 40a, (2R,4S)-N2-(5-((+)-1-amino-3-cyclopropyl-1-(pyridin-4-yl)propyl)-2-fluorophenyl)-N1-(4-chlorophenyl)-4-hydroxy-4-phenylpyrrolidine-1,2-dicarboxamide]",< 50
20,"CO[C@@H]1C[C@H](C(=O)Nc2cc([C@](CCC3CC3)(N[S@+]([O-])C(C)(C)C)c3ccncc3)ccc2F)N(S(=O)(=O)c2ccc3cc(Cl)ccc3c2)C1 [Compound 87b, (2R,4R)-1-(6-chloronaphthalen-2-ylsulfonyl)-N-(5-((S)-3-cyclopropyl-1-((R)-1,1-dimethylethylsulfinamido)-1-(pyridin-4-yl)propyl)-2-fluorophenyl)-4-methoxypyrrolidine-2-carboxamide]",> 100
21,"CC(C)(C)[S@@+]([O-])NC(CCC1CC1)(c1cccc(C#N)c1)c1ccc(F)c(NC(=O)[C@@H]2C[C@@H](O)CN2C(=O)Nc2ccc(Cl)cc2)c1 (stereo partly drawn) [Compound 5d, (2S,4R)-N1-(4-chlorophenyl)-N2-(5-((−)-1-(3-cyanophenyl)-3-cyclopropyl-1-((R)-1,1-dimethylethylsulfinamido)propyl)-2-fluorophenyl)-4-hydroxypyrrolidine-1,2-dicarboxamide]",> 100
22,"N#Cc1cccc(C(N)(CCC2CC2)c2ccc(F)c(NC(=O)[C@H]3C[C@](O)(c4ccccc4)CN3C(=O)Nc3ccc(Cl)cc3)c2)c1 (stereo partly drawn) [Compound 30a, (2R,4S)-N2-(5-((+)-1-amino-1-(3-cyanophenyl)-3-cyclopropylpropyl)-2-fluorophenyl)-N1-(4-chlorophenyl)-4-hydroxy-4-phenylpyrrolidine-1,2-dicarboxamide]",< 50
23,CO[C@@H]1C[C@H](C(=O)Nc2cc(C(CCC3CC3)(N[S@+]([O-])C(C)(C)C)c3cccc(C#N)c3)ccc2F)N(C(=O)Nc2ccc(Cl)cn2)C1 (stereo partly shown) [Compound 18a],< 50
24,"CC(C)(C)[S@@+]([O-])NC(CCC1CC1)(c1cccc(C#N)c1)c1ccc(F)c(NC(=O)[C@@H]2C[C@H](O)CN2C(=O)Nc2ccc(Cl)cc2)c1 (stereo partly drawn) [Compound 10b, (2S,4S)-N1-(4-chlorophenyl)-N2-(5-((−)-1-(3-cyanophenyl)-3-cyclopropyl-1-((R)-1,1-dimethylethylsulfinamido)propyl)-2-fluorophenyl)-4-hydroxypyrrolidine-1,2-dicarboxamide]",> 100
25,"Cc1ccc(NC(=O)N2C[C@H](O)C[C@@H]2C(=O)Nc2cc(C(N)(CCC3CC3)c3cccc(C#N)c3)ccc2F)cc1 (stereo partly drawn) [Compound 22b, (2R,4R)-N2-(5-((+)-1-amino-1-(3-cyanophenyl)-3-cyclopropylpropyl)-2-fluorophenyl)-4-hydroxy-N1-p-tolylpyrrolidine-1,2-dicarboxamide]",> 100

# — patent US10562850B2, “Human plasma kallikrein inhibitors” (priority 2015, dated 2020)
